Earlier results on one compound are cited in patent publication US20210045998A1 (priority 2018, published 2021).

Molecules are shown by their SMILES.

The conditions of this data set: in vivo.

Consider `CC1=CC[C@H]2C[C@@H]1C2(C)C` [α-Pinene, (1S,5S)-2,6,6-Trimethylbicyclo[3.1.1]hept-2-ene], for which the human pulmonary uptake is 60%.
